Results as given in patent US9216999B2, “Substituted pyrrolo[2,3-h][1,6]naphthyridines and compositions thereof as JAK inhibitors” (priority 2011, dated 2015).
Where two headings read alike, the source gives them in different places.

What was measured:
Type in all cases: biochemical
JAK2 = JAK2 (Homo sapiens (Human), UniProt O60674); assay: Enzyme assay (Assay Example^a 1), JAK2; conditions: ATP 100 μM
JAK3 = JAK3 (Homo sapiens (Human), UniProt P52333); assay: Enzyme assay (Assay Example^a 1), JAK3
JAK1 = JAK1 (Homo sapiens (Human), UniProt P23458); assay: Enzyme assay (Assay Example^a 1), JAK1; conditions: ATP 100 μM
Tyk2 = Tyk2 (Homo sapiens (Human), UniProt P29597); assay: Enzyme assay (Assay Example^a 1), Tyk2; conditions: ATP 100 μM
Tyk2, sequence (P29597 whole entry): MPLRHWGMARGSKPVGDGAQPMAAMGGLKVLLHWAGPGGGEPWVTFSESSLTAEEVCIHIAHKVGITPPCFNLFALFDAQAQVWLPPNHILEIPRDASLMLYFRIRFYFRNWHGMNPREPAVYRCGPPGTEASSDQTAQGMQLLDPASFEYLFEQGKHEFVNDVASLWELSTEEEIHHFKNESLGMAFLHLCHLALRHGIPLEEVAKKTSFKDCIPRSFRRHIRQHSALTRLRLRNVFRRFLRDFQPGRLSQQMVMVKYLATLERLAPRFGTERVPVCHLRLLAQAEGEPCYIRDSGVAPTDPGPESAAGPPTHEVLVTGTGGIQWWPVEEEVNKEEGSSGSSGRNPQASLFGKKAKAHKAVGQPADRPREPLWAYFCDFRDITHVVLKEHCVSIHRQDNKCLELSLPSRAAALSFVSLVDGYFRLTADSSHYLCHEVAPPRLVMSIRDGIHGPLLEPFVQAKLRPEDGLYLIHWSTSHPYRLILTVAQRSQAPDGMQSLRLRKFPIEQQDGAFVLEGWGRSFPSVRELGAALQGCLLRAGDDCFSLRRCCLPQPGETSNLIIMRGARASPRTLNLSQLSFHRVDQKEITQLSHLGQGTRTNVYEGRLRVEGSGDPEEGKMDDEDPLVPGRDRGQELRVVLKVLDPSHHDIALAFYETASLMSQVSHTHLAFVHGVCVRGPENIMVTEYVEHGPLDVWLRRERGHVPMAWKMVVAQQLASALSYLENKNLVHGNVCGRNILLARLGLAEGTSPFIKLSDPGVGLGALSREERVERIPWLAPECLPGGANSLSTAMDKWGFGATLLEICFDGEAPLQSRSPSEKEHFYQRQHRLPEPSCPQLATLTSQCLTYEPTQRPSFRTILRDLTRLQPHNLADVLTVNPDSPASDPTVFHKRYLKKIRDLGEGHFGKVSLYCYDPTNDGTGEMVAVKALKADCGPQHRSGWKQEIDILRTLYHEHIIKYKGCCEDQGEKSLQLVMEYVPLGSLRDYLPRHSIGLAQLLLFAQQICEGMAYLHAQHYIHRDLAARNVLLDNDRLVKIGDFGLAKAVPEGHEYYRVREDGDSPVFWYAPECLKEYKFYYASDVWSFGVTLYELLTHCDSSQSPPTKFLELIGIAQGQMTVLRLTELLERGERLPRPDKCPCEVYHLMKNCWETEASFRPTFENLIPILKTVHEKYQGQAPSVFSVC

JAK3, sequence (P52333 whole entry): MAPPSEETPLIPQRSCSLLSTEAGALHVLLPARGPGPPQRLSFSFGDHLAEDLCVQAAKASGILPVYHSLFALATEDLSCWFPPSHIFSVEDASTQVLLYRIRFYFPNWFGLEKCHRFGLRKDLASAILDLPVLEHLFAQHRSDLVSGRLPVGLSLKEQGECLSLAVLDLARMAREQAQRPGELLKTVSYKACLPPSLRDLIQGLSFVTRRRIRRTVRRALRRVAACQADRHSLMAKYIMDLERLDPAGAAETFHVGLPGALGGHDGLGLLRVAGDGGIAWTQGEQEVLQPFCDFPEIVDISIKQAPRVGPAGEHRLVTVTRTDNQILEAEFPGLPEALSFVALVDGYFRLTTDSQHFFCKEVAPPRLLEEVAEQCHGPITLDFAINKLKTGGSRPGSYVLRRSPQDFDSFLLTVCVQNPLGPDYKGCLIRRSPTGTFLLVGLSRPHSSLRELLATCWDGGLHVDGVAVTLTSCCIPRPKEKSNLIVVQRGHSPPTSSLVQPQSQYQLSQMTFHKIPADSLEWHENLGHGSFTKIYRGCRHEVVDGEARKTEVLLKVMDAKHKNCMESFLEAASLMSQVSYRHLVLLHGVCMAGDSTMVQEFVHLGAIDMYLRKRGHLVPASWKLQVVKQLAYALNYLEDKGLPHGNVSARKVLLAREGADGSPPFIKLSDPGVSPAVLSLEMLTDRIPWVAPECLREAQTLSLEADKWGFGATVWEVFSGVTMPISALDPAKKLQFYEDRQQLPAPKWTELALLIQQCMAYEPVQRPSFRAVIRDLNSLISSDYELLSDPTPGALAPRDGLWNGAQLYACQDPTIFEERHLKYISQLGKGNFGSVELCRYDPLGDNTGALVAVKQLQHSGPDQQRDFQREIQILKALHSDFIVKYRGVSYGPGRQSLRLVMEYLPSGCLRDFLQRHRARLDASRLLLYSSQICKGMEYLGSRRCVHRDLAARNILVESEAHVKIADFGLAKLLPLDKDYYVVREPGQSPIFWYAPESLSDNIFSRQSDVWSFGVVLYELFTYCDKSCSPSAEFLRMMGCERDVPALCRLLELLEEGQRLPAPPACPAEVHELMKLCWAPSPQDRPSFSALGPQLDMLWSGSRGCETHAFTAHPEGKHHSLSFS

| IC50 (JAK2) [µM] | IC50 (JAK3; ATP 100 μM) [µM] | IC50 (JAK1) [µM] | IC50 (Tyk2) [µM] | Compound | IC50 (JAK3) [µM] | IC50 (JAK2; Table^a 154) [µM] | IC50 (JAK3; ATP 100 μM, Table^a 154) [µM] | IC50 (JAK1; Table^a 154) [µM] | IC50 (Tyk2; Table^a 154) [µM] |
| --- | --- | --- | --- | --- | --- | --- | --- | --- | --- |
| 0.0017 | 0.048 | 0.00033 | 0.0092 | [N-]=[N+]=NC[C@H]1CC[C@H](c2nnn3cnc4[nH]ccc4c23)CC1 [compound 369, 1-[trans-4-(Azidomethyl)cyclohexyl]-7H-pyrrolo[3,2-e][1,2,3]triazolo[1,5-c]pyrimidine] | – | – | – | – | – |
| – | – | – | – | FC(F)(F)c1ccc(CN[C@H]2CC[C@@H](c3nnn4cnc5[nH]ccc5c34)CC2)cc1 [138a] | – | 0.74 | > 1 | 0.023 | 0.25 |
| 0.052 | 0.26 | 0.018 | 0.86 | FC1(F)CN(C[C@H]2CC[C@H](c3nnn4cnc5[nH]ccc5c34)CC2)C1 [compound 339, 1-{trans-4-[(3,3-difluoroazetidin-1-yl)methyl]cyclohexyl}-7H-pyrrolo[3,2-e][1,2,3]triazolo[1,5-c]pyrimidine] | – | – | – | – | – |
| – | – | – | – | c1cc2c(ncn3nnc([C@H]4CC[C@@H](NN5CCOCC5)CC4)c23)[nH]1 [139a] | – | 0.4 | 0.43 | 0.26 | > 1 |
| 0.3 | 0.44 | 0.04 | 0.81 | OC1CN(C[C@H]2CC[C@@H](c3nnn4cnc5[nH]ccc5c34)CC2)C1 [compound 403, 1-{[cis-4-(7H-Pyrrolo[3,2-e][1,2,3]triazolo[1,5-c]pyrimidin-1-yl)cyclohexyl]methyl}azetidin-3-ol] | – | – | – | – | – |
| 0.07 | 0.39 | 0.0052 | 0.08 | N#Cc1ccc(CCNC[C@H]2CC[C@H](c3nnn4cnc5[nH]ccc5c34)CC2)cc1 [compound 282, 4-[2-({[trans-4-(7H-pyrrolo[3,2-e][1,2,3]triazolo[1,5-c]pyrimidin-1-yl)cyclohexyl]methyl}amino)ethyl]benzonitrile] | – | – | – | – | – |
| – | – | – | – | Fc1cc(Cl)ccc1CN1CCC(c2nnn3cnc4[nH]ccc4c23)CC1 [compound 158] | – | 0.0044 | 0.059 | 0.0007 | 0.097 |
| 0.0025 | 0.032 | 0.00011 | 0.0029 | N#CC[C@H]1CC[C@H](c2nnn3cnc4[nH]ccc4c23)CC1 [435b, 2-[trans-4-(7H-Pyrrolo[3,2-e][1,2,3]triazolo[1,5-c]pyrimidin-1-yl)cyclohexyl]acetonitrile] | – | – | – | – | – |
| 0.05 | 0.15 | 0.0077 | 0.48 | N#CC1CN(C[C@H]2CC[C@H](c3nnn4cnc5[nH]ccc5c34)CC2)C1 [compound 281, 1-{[trans-4-(7H-pyrrolo[3,2-e][1,2,3]triazolo[1,5-c]pyrimidin-1-yl)cyclohexyl]methyl}azetidine-3-carbonitrile] | – | – | – | – | – |
| 0.035 | 0.79 | 0.017 | 0.52 | O/N=C/[C@H]1CC[C@H](c2nnn3cnc4[nH]ccc4c23)CC1 [compound 429, 4-(7H-Pyrrolo[3,2-e][1,2,3]triazolo[1,5-c]pyrimidin-1-yl)cyclohexanecarbaldehyde oxime] | – | – | – | – | – |
| – | – | – | – | Clc1ccc(NC[C@H]2CC[C@H](c3nnn4cnc5[nH]ccc5c34)CC2)cc1 [compound 176, N-{[trans-4-(7H-pyrrolo[3,2-e][1,2,3]triazolo[1,5-c]pyrimidin-1-yl)cyclohexyl]methyl}-4-chloroaniline] | – | 0.19 | > 1 | 0.034 | > 1 |
| 0.021 | 0.079 | 0.0025 | 0.57 | FC1(F)Oc2ccc(CN3CCC(c4nnn5cnc6[nH]ccc6c45)CC3)cc2O1 [compound 227, 1-{1-[(2,2-Difluorobenzo[d][1,3]dioxol-5-yl)methyl]piperidin-4-yl}-7H-pyrrolo[3,2-e][1,2,3]triazolo[1,5-c]pyrimidine] | – | – | – | – | – |
| 0.029 | 0.8 | 0.0048 | 0.21 | CNC[C@H]1CC[C@H](c2nnn3cnc4[nH]ccc4c23)CC1 [compound 329, 1-[trans-4-(7H-pyrrolo[3,2-e][1,2,3]triazolo[1,5-c]pyrimidin-1-yl)cyclohexyl]-N-methylmethanamine] | – | – | – | – | – |
| – | – | – | – | FC(F)C(F)(F)Oc1ccc(CN2CCC(c3nnn4cnc5[nH]ccc5c34)CC2)cc1 [compound 169, 1-{1-[4-(1,1,2,2-tetrafluoroethoxy)benzyl]piperidin-4-yl}-7H-pyrrolo[3,2-e][1,2,3]triazolo[1,5-c]pyrimidine] | – | 0.052 | 0.58 | 0.005 | > 1 |
| 0.1 | 0.94 | 0.024 | 0.31 | COCC1(NC[C@H]2CC[C@H](c3nnn4cnc5[nH]ccc5c34)CC2)CC1 [compound 293, N-{[trans-4-(7H-pyrrolo[3,2-e][1,2,3]triazolo[1,5-c]pyrimidin-1-yl)cyclohexyl]methyl}-1-(methoxymethyl)cyclopropanamine] | – | – | – | – | – |
| – | – | – | – | FC(F)(F)c1ccc(CN[C@H]2CC[C@H](c3nnn4cnc5[nH]ccc5c34)CC2)cc1 [138b] | – | 0.043 | 0.4 | 0.0043 | 0.046 |
| 0.051 | 0.75 | 0.0099 | 0.29 | NC(=O)[C@H]1CC[C@H](c2nnn3cnc4[nH]ccc4c23)CC1 [compound 348, trans-4-(7H-pyrrolo[3,2-e][1,2,3]triazolo[1,5-c]pyrimidin-1-yl)cyclohexanecarboxamide] | – | – | – | – | – |
| 0.03 | 0.79 | 0.0062 | 0.38 | N#CCN[C@H]1CC[C@H](c2nnn3cnc4[nH]ccc4c23)CC1 [393b, 2-{[trans-4-(7H-pyrrolo[3,2-e][1,2,3]triazolo[1,5-c]pyrimidin-1-yl)cyclohexyl]amino}acetonitrile] | – | – | – | – | – |
| 0.0061 | 0.37 | 0.0013 | 0.03 | O=S(=O)(C[C@H]1CC[C@H](c2nnn3cnc4[nH]ccc4c23)CC1)C(F)(F)F [compound 368, 1-(trans-4-{[(Trifluoromethyl)sulfonyl]methyl}cyclohexyl)-7H-pyrrolo[3,2-e][1,2,3]triazolo[1,5-c]pyrimidine] | – | – | – | – | – |

| Compound | IC50 (JAK2) [µM] | IC50 (JAK3; ATP 100 μM) [µM] | IC50 (JAK1) [µM] | IC50 (Tyk2) [µM] | IC50 (JAK3) [µM] | IC50 (JAK2; Table^a 154) [µM] | IC50 (JAK3; ATP 100 μM, Table^a 154) [µM] | IC50 (JAK1; Table^a 154) [µM] | IC50 (Tyk2; Table^a 154) [µM] |
| --- | --- | --- | --- | --- | --- | --- | --- | --- | --- |
| OCCN(CCO)C[C@H]1CC[C@H](c2nnn3cnc4[nH]ccc4c23)CC1 [compound 298, 2,2′-({[trans-4-(7H-pyrrolo[3,2-e][1,2,3]triazolo[1,5-c]pyrimidin-1-yl)cyclohexyl]methyl}azanediyl)diethanol] | 0.11 | > 1 | 0.019 | 0.59 | – | – | – | – | – |
| CC1CCCCC1c1nnn2cnc3[nH]ccc3c12 (stereo not drawn) [compound 7] | 0.012 | – | 0.0042 | 0.056 | 0.055 | – | – | – | – |
| N#CCCNC(=O)[C@H]1CC[C@H](c2nnn3cnc4[nH]ccc4c23)CC1 [compound 356, trans-N-(2-cyanoethyl)-4-(7H-pyrrolo[3,2-e][1,2,3]triazolo[1,5-c]pyrimidin-1-yl)cyclohexanecarboxamide] | 0.036 | > 1 | 0.0036 | 0.16 | – | – | – | – | – |
| N#CCCN[C@H]1CC[C@H](c2nnn3cnc4[nH]ccc4c23)CC1 [394b, 3-{[trans-4-(7H-pyrrolo[3,2-e][1,2,3]triazolo[1,5-c]pyrimidin-1-yl)cyclohexyl]amino}propanenitrile] | 0.09 | > 1 | 0.015 | > 1 | – | – | – | – | – |
| O=C([C@H]1CC[C@H](c2nnn3cnc4[nH]ccc4c23)CC1)N1CC[C@H](O)C1 [compound 358, [trans-4-(7H-pyrrolo[3,2-e][1,2,3]triazolo[1,5-c]pyrimidin-1-yl)cyclohexyl][(S)-3-hydroxypyrrolidin-1-yl]methanone] | 0.91 | > 1 | 0.63 | > 1 | – | – | – | – | – |
| FC(F)(F)C(F)(F)CN[C@H]1CC[C@@H](c2nnn3cnc4[nH]ccc4c23)CC1 [383a, cis-N-(2,2,3,3,3-pentafluoropropyl)-4-(7H-pyrrolo[3,2-e][1,2,3]triazolo[1,5-c]pyrimidin-1-yl)cyclohexanamine] | 0.37 | > 1 | 0.09 | > 1 | – | – | – | – | – |
| O=S(=O)(O)C[C@H]1CC[C@H](c2nnn3cnc4[nH]ccc4c23)CC1 [compound 416, [trans-4-(7H-Pyrrolo[3,2-e][1,2,3]triazolo[1,5-c]pyrimidin-1-yl)cyclohexyl]methanesulfonic acid] | 0.047 | > 1 | 0.029 | 0.68 | – | – | – | – | – |
| O=C(NCCc1ccc(Cl)cc1)[C@H]1CC[C@H](c2nnn3cnc4[nH]ccc4c23)CC1 [compound 352, trans-N-(4-chlorophenethyl)-4-(7H-pyrrolo[3,2-e][1,2,3]triazolo[1,5-c]pyrimidin-1-yl)cyclohexanecarboxamide] | 0.029 | > 1 | 0.005 | > 1 | – | – | – | – | – |
| N#CC(NC(=O)[C@H]1CC[C@H](c2nnn3cnc4[nH]ccc4c23)CC1)c1ccccc1 (stereo partly drawn) [compound 351, trans-N-[cyano(phenyl)methyl]-4-(7H-pyrrolo[3,2-e][1,2,3]triazolo[1,5-c]pyrimidin-1-yl)cyclohexanecarboxamide] | 0.089 | > 1 | 0.012 | > 1 | – | – | – | – | – |
| N#Cc1cc(NC[C@H]2CC[C@H](c3nnn4cnc5[nH]ccc5c34)CC2)ccc1Cl [compound 263, 5-({[trans-4-(7H-pyrrolo[3,2-e][1,2,3]triazolo[1,5-c]pyrimidin-1-yl)cyclohexyl]methyl}amino)-2-chlorobenzonitrile] | 0.22 | > 1 | 0.027 | > 1 | – | – | – | – | – |
| N#Cc1ccc(N2CCC(c3nnn4cnc5[nH]ccc5c34)CC2)cc1 [compound 376, 4-[4-(7H-Pyrrolo[3,2-e][1,2,3]triazolo[1,5-c]pyrimidin-1-yl)piperidin-1-yl]benzonitrile] | 0.19 | > 1 | 0.019 | > 1 | – | – | – | – | – |
